By Cmax is commonly meant the highest concentration seen after dosing.

The source of these data is patent publication US10772879B2, “Pharmaceutical formulations” (TORRENT PHARMACEUTICALS LIMITED, priority 2015, dated 2020).

A short description of data set [1]: Oral bioavailability in rats (data on file). The format is in vivo. As to conditions: administered orally to rats.
The conditions of data set [2]: phase I clinical studies, humans; cited from earlier work.
The test system of data set [3] is animal models of Type II diabetes. The conditions noted are these: cited from earlier work.
Data set [4] in a line: Assessment of oral pharmacokinetics / bioavailability in jugular vein cannulated Wistar rats. The format is in vivo. As to conditions: 10 mg/kg, Wistar rats (n=5), Mean. How it is done:
Bioavailability of 1-(2-thien-2′-yl-2-oxo-ethyl)-3-(methanesulfonyl hydrazine carbonyl) pyridinium compound was checked using formulations as given in Table 2.
The assessment of oral pharmacokinetics was carried out. […] The blood samples were withdrawn at pre-determined time points; pre-dose (0.0 hr), 0.25, 0.5, 1, 2, 4, 6, 8, 12 and 24 hrs post dose. Plasma obtained at each time point was subjected to quantification of 1-(2-thien-2′-yl-2-oxo-ethyl)-3-(methanesulfonyl hydrazine carbonyl) pyridinium compound. LC-MS/MS method was used for the quantification of 1-(2-thien-2′-yl-2-oxo-ethyl)-3-(methanesulfonyl hydrazine carbonyl) pyridinium compound using an internal standard. The plasma samples were analyzed using solid phase extraction techniques in the calibration range of 0.500 ng/mL to 1000.000 ng/mL.
Data were presented with Mean±SD (standard deviation) and compared with 1-(2-thien-2′-yl-2-oxo-ethyl)-3-(methanesulfonyl hydrazine carbonyl) pyridinium compound PK data obtained after oral administration of solution of 1-(2-thien-2′-yl-2-oxo-ethyl)-3-(methanesulfonyl hydrazine carbonyl) pyridinium chloride in water under similar conditions.

The conditions of data set [5]: clinical studies, administered orally; cited from earlier work.

On to “1-(2-thien-2′-yl-2-oxo-ethyl)-3-(methanesulfonyl hydrazine carbonyl) pyridinium bromide”, for which the bioavailability result in data set [1] was “very low”.

As for “1-(2-thien-2′-yl-2-oxo-ethyl)-3-(methanesulfonyl hydrazine carbonyl) pyridinium chloride”, the oral bioavailability result in data set [2] is recorded as “very low”. Further, in data set [3], the “effect on cardiomyopathy and nephropathy” value is “improve cardiomyopathy and nephropathy”. In data set [4], this substance yielded an AUClast of 222.86 ng·h/mL and a maximum concentration (Cmax) of 85.764 ng/mL. The safety and tolerability entry in data set [5] was “safe and well tolerated”.
